The results in this text go back to publication PMC9376960, “Ruthenium(II)–Tris-pyrazolylmethane Complexes Inhibit Cancer Cell Growth by Disrupting Mitochondrial Calcium Homeostasis” (Journal of Medicinal Chemistry, 2022).

Marks after values point to notes of the source that are not given here.

The nature of data set [1]: Solubility in water (D2O) by 1H NMR. The class given is physicochemical. The conditions noted are these: for solubility: D2O, 21°C, sum of chloro and aquo complex after 2 h, 1H NMR, Me2SO2 standard. The protocol: A suspension of the selected ruthenium complex (3–5 mg) in a D2O solution (0.7 mL) containing Me2SO2 as the internal standard[115] (3.36 × 10^–3 M) was vigorously stirred at 21 °C for 2 h. The resulting saturated solution was filtered over celite, transferred into an NMR tube, and analyzed by ^1H NMR and ^31P NMR spectroscopy (delay time = 3 s; number of scans = 20). The concentration (solubility) was calculated by the relative integral (starting complex + aquo complex, C^βH signal in the ^1H spectrum) with respect to Me2SO2 (δ/ppm = 3.14). NMR data are given in the Supporting Information (Figures S36–S47).

Data set [2] can be described thus: Octanol/water partition coefficient, shake-flask, UV-vis. It counts as physicochemical. The procedure:
Partition coefficients (Pow); IUPAC: […] A stock solution of the selected ruthenium compound (ca. 2 mg) was prepared by first adding MeOH (50 μL, to help solubilization), followed by octanol-saturated water (2.5 mL). The solution was diluted with octanol-saturated water (ca. 1:3 v/v ratio, cRu ≈ 10^-4 M, so that 1.5 ≤ A ≤ 2.0 at λmax), and its UV-vis spectrum was recorded (Aaq^0). An aliquot of the solution (Vaq = 1.2 mL) was transferred into a test tube, and water-saturated octanol (Vorg = Vaq = 1.2 mL) was added. […] The UV-vis spectrum of the aqueous phase was recorded (Aaq^f), and the partition coefficient was calculated as Pow = ([…], where […] are the absorbances in the aqueous phase before and after partition with the organic phase, respectively.[118] For 1, an inverse procedure was followed, starting from a solution of the compound in water-saturated octanol. The partition coefficient was calculated as Pow = Aorg^f/(Aorg^0 - Aorg^f), where Aorg^0 and Aorg^f are the absorbances in the organic phase before and after partition with the aqueous phase, respectively. The wavelength of the maximum absorption of each compound (280-380 nm range) was used for UV-vis quantitation. The procedure was repeated three times for each sample (from the same stock solution); the results are given as mean ± standard deviation (Table 2).

Data set [3] can be described thus: Stability and chloride/water exchange in D2O (NMR). The conditions noted are these: for Aquo species % in D2O after 48h: 48 h at 37 °C; for residual complex % in D2O: sum of chloro and aquo complexes; for Aquo species % in D2O at t0: t0 = after 2 h stirring in D2O. The class given is physicochemical. The protocol:
The same samples prepared at point (a) were used in this experiment, apart from complex 1 that was dissolved in DMSO-d6/D2O 4:1 v/v solution (0.7 mL; [Ru] = approx. […]) containing Me2SO2 as the standard.[115] After ^1H and ^31P{^1H} NMR analyses described above at point (a) (time = t0), samples were heated at 37 °C for 48 h. After cooling to room temperature, ^1H and ^31P NMR spectra were recorded. The percentage of starting complex + related aquo complex was calculated by the relative integral (C^βH signal in the ^1H spectrum) with respect to Me2SO2 (c = 3.3 × 10^–3 mol·L^–1; δ/ppm = 3.14 in D2O; δ/ppm = 2.95 in DMSO-d6/D2O 4:1 v/v), see Table 2 and S1.

Another data set relates to 518A2. Briefly: MTT antiproliferative assay. Conditions: 72 h, mean ± SD. It counts as cell-based, human. The procedure:
(§1) All of the cell lines were cultivated in DMEM medium (high glucose 4.5 g L^–1, PAA, Pasching, Austria) supplemented with gentamycin (50 μg mL^–1, Serva, Heidelberg, Germany) and 10% heat-inactivated fetal bovine serum (PAA). The medium for MRC5pd30 cells was further supplemented by 1% nonessential amino acids (Sigma-Aldrich, Prague, Czech Republic). All cells were cultured as adherent monolayers in a humidified incubator at 37 °C in a 5% CO2 atmosphere and subcultured twice a week with an appropriate plating density.
(§2) In vitro antiproliferative activity of Ru complexes was determined by the MTT or, alternatively, SRB assay as already described,[84] after 72 h of incubation of cells with various concentrations of the Ru complex. The reported IC50 values are an average of three independent experiments, each consisting of three replicates per concentration.
(In general: Formazan colour is commonly taken as a measure of viable cells.)

Data set [4] concerns HCT116. Briefly: MTT antiproliferative assay. It counts as cell-based, human. Conditions: 72 h, mean ± SD. The protocol: as §1, §2
In another data set the test system is HeLa. Nature of the data set: MTT antiproliferative assay. The conditions noted are these: 72 h, mean ± SD. It counts as cell-based, human. The procedure: as §1, §2
In another data set the test system is MCF-7. Nature of the data set: MTT antiproliferative assay. The conditions noted are these: 72 h, mean ± SD. The class given is cell-based, human. The procedure: as §1, §2
The test system of the next data set is MRC5pd30. Briefly: MTT assay on noncancerous cells. The conditions noted are these: 72 h, mean ± SD. The class given is cell-based, human. The protocol: as §1, §2
Data set [5] deals with cancer cell lines (MCF-7, HeLa, 518A2, HCT116, RD) vs noncancerous MRC-5pd30. Briefly: MTT panel: average IC50 of cancer cell lines and selectivity index. It counts as cell-based, human. Conditions: for SI (selectivity index): IC50 for noncancerous MRC-5pd30 vs the average IC50 value of cancer cell lines; for IC50: average of IC50 values related to cancer cell lines. The protocol:
as §2

The subject of data set [6] is HCT116. Nature of the data set: SRB antiproliferative assay. It counts as cell-based, human. The conditions noted are these: SRB test, 72 h; mean ± SD. The protocol:
as §2
A general note: In SRB staining, fixed cells bind dye roughly in proportion to their protein.

A further data set concerns HCT116 cells. Briefly: Calcium flux, Rhod-2 and Fluo-4 probes. Conditions: for effect on Ca2+ flux into the mitochondria induced by ionomycin: 2.5 h pretreatment, 10 μM (1 also 2.5, 5 μM), Rhod-2, 5 μM ionomycin. The class given is cell-based, human. The procedure:
The distribution of calcium ions in cytosol and mitochondria was studied using calcium-sensitive fluorescent probes. HCT116 cells were seeded at a density of 2 × 10^5 cells/well on six-well plates. After overnight cultivation, the cells were treated with Ru complexes at indicated concentrations for 2.5 h. The culture medium was then replaced with either 5 μM Rhod-2 or Fluo-4 in PBS supplemented with 2 mM CaCl2 and incubated for 30 min at 37 °C. At last, cells were harvested and suspended in PBS (with 2 mM CaCl2) or in PBS (with 2 mM CaCl2) supplemented with ionomycin (5 μM) for 30 min at 37 °C and analyzed using a BD FACSverse flow cytometer.
On the technique in general: Calcium flux is commonly read through the fluorescence of an indicator in the cells.

Data set [7] relates to mitochondrial membrane potential of HCT116 cells. Briefly: Mitochondrial membrane potential, TMRE assay. It counts as cell-based, human. The conditions noted are these: 5 h; 10 μM and 2x or 4x IC50,72h. The procedure:
Effects of Ru complexes on mitochondrial membrane potential were assessed by TMRE staining of HCT116 cells after treatment. First, HCT116 cells were seeded on a six-well plate at a 1.5 × 10^5 cells/well density. The next day, the cells were treated with equimolar (10 μM) and equitoxic (twofold or fourfold IC50,72h) concentrations of Ru complexes for 5 h. Then, the cells were collected and stained with 100 nM TMRE in a complete DMEM medium for 30 min at 37 °C in the dark. The TMRE-containing medium was then replaced with PBS, and cells were analyzed by a BD FACSverse flow cytometer (λex = 488 nm, λem = 586 nm).

As for “[RuCl(κ^3-tpm)(PPh3){CNCH2P(O)(OEt2)2}]Cl [compound 9]”, the solubility in data set [1] is 4.6 10^–3 mol·L^–1. In addition, the “log Pow” value in data set [2] is listed as “–0.20 ± 0.05”. Also, the “Aquo species % in D2O after 48h” value in data set [3] stood at 73%. Besides, the “residual complex % in D2O” value in data set [3] (after 48 h at 37 °C) is listed as 93%. Further, the “Aquo species % in D2O at t0” value in data set [3] was determined as 0%. The half-inhibitory concentration (IC50) came to 38 ± 7 µM in the data set with 518A2; 35 ± 6 µM in the data set with HCT116 [4]; 36 ± 2 µM with HeLa; 43 ± 7 µM with MCF-7; 50.8 ± 0.4 µM in the data set on MRC5pd30; 35.2 ± 5 µM in [5]. In addition, the IC50 in the data set with HCT116 [6] amounted to 29 ± 3 µM. The “SI (selectivity index)” value in data set [5] came to 1.5. In addition, in the data set with HCT116 cells, the “effect on Ca2+ flux into the mitochondria induced by ionomycin” value (from here on “effect”) is “insignificant”.
Take “[RuCl(κ^3-tpm)(PPh3)(CNCy)]Cl [compound 8]”: the solubility in data set [1] is recorded as 1.1 10^–3 mol·L^–1. Also, the “Aquo species % in D2O after 48h” value in data set [3] is reported as 90%. Moreover, the “residual complex % in D2O” value in data set [3] (after 48 h at 37 °C) came out at 92%. In data set [3], the “Aquo species % in D2O at t0” value is 33%. For the same substance, the IC50 in the data set on 518A2 is 10 ± 2 µM; in the data set with HCT116 [4] it was 8 ± 2 µM; in the data set with HeLa, 15 ± 1 µM; with MCF-7, 10 ± 2 µM; in the data set with MRC5pd30 it was 19.7 ± 0.4 µM; in data set [5], 9.9 ± 1.5 µM. Further, the IC50 with HCT116 [6] came to 5.2 ± 0.5 µM. Further, in [5], the “SI (selectivity index)” value stood at 2.0. For the same substance, in [7], the “decrease of TMRE fluorescence (mitochondrial depolarization)” value (from here on “decrease of TMRE fluorescence”) is on record as “more pronounced”. The “effect” value with HCT116 cells is “less pronounced”.
Take “[RuCl(κ^3-tpm)(PPh3){P(OMe)3}]Cl [compound 7]”: the solubility in [1] is on record as 3.1 10^–3 mol·L^–1. The “Aquo species % in D2O after 48h” value in [3] is 83%. The “residual complex % in D2O” value in data set [3] (after 48 h at 37 °C) was 100%. The “Aquo species % in D2O at t0” value in [3] was determined as 57%. Besides, the IC50 was 6.8 ± 0.8 µM in the data set with 518A2; 6.7 ± 0.4 µM with HCT116 [4]; 10 ± 2 µM with HeLa; 6 ± 1 µM in the data set on MCF-7; 24 ± 1 µM in the data set with MRC5pd30; 7.1 ± 1 µM in data set [5]. For the same substance, in the data set with HCT116 [6], it took 5.8 ± 0.6 µM to reach half-maximal inhibition (IC50). In addition, the “SI (selectivity index)” value in data set [5] is 3.4. Besides, the “decrease of TMRE fluorescence” value in data set [7] is “less potent in reducing mitochondrial membrane potential”. Further, the “effect” value in the data set on HCT116 cells was “less pronounced”.
With [RuCl(κ^3-tpm)(PPh3)2]Cl [compound 1], the “solubility in water” value in [1] is “insoluble in water”. Moreover, the “residual complex % in DMSO-d6/D2O” value in [3] (DMSO-d6/D2O (4:1 v/v) mixture, after 48 h at 37 °C) is 69 ^c %. For the same substance, the IC50 in the data set with 518A2 is 2.6 ± 0.4 µM; in the data set on HCT116 [4] it was 1.5 ± 0.1 µM; in the data set on HeLa, 4 ± 0.4 µM; in the data set with MCF-7, 2.4 ± 0.6 µM; in the data set with MRC5pd30 it was 5.8 ± 0.7 µM; in data set [5], 2.5 ± 0.3 µM. Besides, the IC50 in the data set with HCT116 [6] amounted to 0.45 ± 0.05 µM. Also, the “SI (selectivity index)” value in data set [5] was found to be 2.3. The “decrease of TMRE fluorescence” value in [7] was “more pronounced”. The “increase in the concentration of Ca2+ in the cytoplasm” value with HCT116 cells (2.5 h, 10 μM, Fluo-4) is “most prominent”. Besides, in the data set on HCT116 cells, the “effect” value was “reduced Ca^2+ flux into the mitochondria”.
Take “[RuCl(κ^3-tpm)(PPh3){NCHN(Me)(CH)2}]Cl [compound 3]”: the solubility in data set [1] is recorded as 3.4 10^–3 mol·L^–1. Besides, the “log Pow” value in [2] is given as “–0.15 ± 0.03”. In addition, in [3], the “Aquo species % in D2O after 48h” value is reported as 93%. In addition, in [3] (after 48 h at 37 °C), the “residual complex % in D2O” value is on record as 100%. Moreover, the “Aquo species % in D2O at t0” value in [3] is on record as 75%. The IC50 amounted to 33 ± 5 µM in the data set with 518A2; 25 ± 1 µM in the data set with HCT116 [4]; 91 ± 3 µM in the data set with HeLa; 38 ± 8 µM in the data set with MCF-7; 83.6 ± 0.5 µM in the data set on MRC5pd30; 42.8 ± 4.2 µM in data set [5]. The substance further came in with an IC50 with HCT116 [6] of 16 ± 2 µM. Besides, the “SI (selectivity index)” value in data set [5] is 2.0.

The IC50 is the point on the concentration scale where inhibition reaches its midpoint.
